For one test, the system named is guinea pig ileum. The experiment in a line: guinea pig ileum test (inhibition of voltage induced contractions). Type of test: cell-based. The settings on record: read-out: I.D.50 in the guinea pig ileum test.
The test system of test [1] is opioid receptors in caudate nuclei homogenate S4e. The experiment in a line: affinity labeling of opiate receptor sites by irradiation of azido compounds, caudate nuclei homogenate S4e. It is filed as binding, bovine. The conditions noted are these: normorphine hydrochloride added before the azide and irradiation.

This note sets out measurements from patent US4261883A (priority 1979, dated 1981).

Where two headings read alike, the source gives them in different places.

For the compound `Oc1ccc2c3c1O[C@H]1[C@@H](O)C=C[C@H]4[C@@H](C2)NCC[C@@]341` [normorphine], the IC50 in the test with guinea pig ileum (Cavia porcellus) was determined as 120 nM. Besides, the “effect on the deactivation of the opioid receptors by the azide compounds” value in test [1] is recorded as “inhibit the deactivation of the opioid receptors”. On to (D-ala^ 2)met-enkephalinamide, for which the IC50 with guinea pig ileum came to 12 nM.
